7 compounds from ChEMBL document CHEMBL2074547, “Efflux of sphingoid bases by P-glycoprotein in human intestinal Caco-2 cells” (Biosci Biotechnol Biochem, 2004) can be followed below.

The target in the data set is ATP-dependent translocase ABCB1 (Homo sapiens, UniProt P08183). The data set is described as follows: TP_TRANSPORTER: cell accumulation (digoxin-sensitive) in Caco-2 cells. It is filed as functional, cell-based.
ATP-dependent translocase ABCB1, sequence (P08183 whole entry): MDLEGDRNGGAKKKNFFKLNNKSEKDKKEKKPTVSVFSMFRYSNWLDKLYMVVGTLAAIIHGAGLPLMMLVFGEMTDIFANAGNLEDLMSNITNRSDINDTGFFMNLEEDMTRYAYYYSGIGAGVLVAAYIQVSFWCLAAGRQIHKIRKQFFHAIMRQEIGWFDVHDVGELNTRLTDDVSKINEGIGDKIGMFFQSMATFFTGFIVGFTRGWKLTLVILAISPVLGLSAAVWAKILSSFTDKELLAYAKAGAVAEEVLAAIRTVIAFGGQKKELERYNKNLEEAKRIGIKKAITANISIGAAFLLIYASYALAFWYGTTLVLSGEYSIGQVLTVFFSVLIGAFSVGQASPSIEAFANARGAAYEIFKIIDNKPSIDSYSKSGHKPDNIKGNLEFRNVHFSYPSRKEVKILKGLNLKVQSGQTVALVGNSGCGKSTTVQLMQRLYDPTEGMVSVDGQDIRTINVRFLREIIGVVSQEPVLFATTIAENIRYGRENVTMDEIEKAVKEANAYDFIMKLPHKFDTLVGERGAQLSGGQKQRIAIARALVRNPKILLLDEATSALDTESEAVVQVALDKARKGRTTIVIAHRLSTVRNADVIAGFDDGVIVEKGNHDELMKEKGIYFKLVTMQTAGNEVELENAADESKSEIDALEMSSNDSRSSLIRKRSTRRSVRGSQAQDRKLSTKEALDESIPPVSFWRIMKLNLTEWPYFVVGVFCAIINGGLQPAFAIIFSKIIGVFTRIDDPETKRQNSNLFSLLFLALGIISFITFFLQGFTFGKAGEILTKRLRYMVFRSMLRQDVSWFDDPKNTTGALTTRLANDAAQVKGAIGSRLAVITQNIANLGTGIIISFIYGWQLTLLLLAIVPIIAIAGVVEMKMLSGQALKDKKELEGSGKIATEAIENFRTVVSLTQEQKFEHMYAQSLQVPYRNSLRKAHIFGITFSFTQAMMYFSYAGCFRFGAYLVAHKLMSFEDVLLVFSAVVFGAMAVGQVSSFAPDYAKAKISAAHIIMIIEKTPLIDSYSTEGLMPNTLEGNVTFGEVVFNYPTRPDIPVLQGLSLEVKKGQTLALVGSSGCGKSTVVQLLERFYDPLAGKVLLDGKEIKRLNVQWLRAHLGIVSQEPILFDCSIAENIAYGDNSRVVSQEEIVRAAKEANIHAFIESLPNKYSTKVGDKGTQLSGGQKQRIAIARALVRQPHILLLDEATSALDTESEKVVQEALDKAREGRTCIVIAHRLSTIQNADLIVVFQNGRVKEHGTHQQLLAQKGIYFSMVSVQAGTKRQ
Consider `CCCCCCCCC/C=C/CC/C=C/C(O)C(N)CO` (configuration not stated), for which the Activity result is “substrate [+]”.

`CCCCCCCCCCCCC/C=C/[C@@H](O)[C@@H](N)CO` [SPHINGOSINE]: the Activity entry was “is not a substrate [-]”.

With `CCCCCCCCC/C(C)=C/CC/C=C/C(O)C(N)CO` (configuration not stated), the Activity result is “substrate [+]”.

In the case of `CCCCCCCCC/C=C\CC/C=C/C(O)C(N)CO` (configuration not stated), the Activity entry was “substrate [+]”.

Consider `CCCCCCCCCCCCCCC[C@@H](O)[C@@H](N)CO` [DIHYDROSPINGOSINE], for which the Activity entry is “substrate [+]”.

For the compound `CCCCCCCCC/C=C/CCCCC(O)C(N)CO` (configuration not stated), the Activity entry was “substrate [+]”.

With `CCCCCCCCC/C=C\CCCCC(O)C(N)CO` (configuration not stated), the Activity entry is “substrate [+]”.
